{"source": "ChEMBL document CHEMBL1201862", "about": "“PubChem BioAssay data set” (2004)", "key": {"[1]": {"biological_target": "T1, Short transient receptor potential channel 4 (Mus musculus, UniProt Q9QUQ5)", "T1 sequence (Q9QUQ5 whole entry)": "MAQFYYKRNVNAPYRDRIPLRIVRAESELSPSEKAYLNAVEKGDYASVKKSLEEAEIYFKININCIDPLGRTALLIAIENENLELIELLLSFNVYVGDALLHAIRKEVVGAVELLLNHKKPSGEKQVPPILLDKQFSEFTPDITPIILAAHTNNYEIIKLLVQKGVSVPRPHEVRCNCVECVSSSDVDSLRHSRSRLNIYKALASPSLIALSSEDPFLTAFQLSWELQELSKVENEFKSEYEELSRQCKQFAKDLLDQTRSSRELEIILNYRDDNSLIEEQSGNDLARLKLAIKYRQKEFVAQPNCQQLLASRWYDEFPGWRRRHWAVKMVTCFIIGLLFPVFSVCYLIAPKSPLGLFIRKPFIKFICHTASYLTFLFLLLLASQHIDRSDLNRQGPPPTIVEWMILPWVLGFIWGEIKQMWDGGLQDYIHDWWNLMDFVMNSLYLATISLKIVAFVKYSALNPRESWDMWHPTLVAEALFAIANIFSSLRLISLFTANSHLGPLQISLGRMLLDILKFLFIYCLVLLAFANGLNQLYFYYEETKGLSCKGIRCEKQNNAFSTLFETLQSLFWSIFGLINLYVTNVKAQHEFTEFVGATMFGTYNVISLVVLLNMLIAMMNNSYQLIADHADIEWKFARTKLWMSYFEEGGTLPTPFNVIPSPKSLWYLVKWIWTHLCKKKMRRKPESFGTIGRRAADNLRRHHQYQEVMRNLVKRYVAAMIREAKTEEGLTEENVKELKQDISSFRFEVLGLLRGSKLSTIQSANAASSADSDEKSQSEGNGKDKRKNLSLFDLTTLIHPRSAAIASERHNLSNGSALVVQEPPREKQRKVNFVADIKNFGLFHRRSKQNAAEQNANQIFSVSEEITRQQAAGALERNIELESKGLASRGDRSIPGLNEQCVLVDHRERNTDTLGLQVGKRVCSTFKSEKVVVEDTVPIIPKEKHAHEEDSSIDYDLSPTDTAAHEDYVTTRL", "test": "calcium entry via TRPC4 opening agents – cell-based, HEK293 TRPC4/mu-opioid, Fluo-4 calcium, dose response (AID 434937)", "format": "functional"}, "[2]": {"test": "A cytotoxicity screen of small molecule inhibitors of the PhoP region in Salmonella typhi identified in the primary screen. [Related pubchem assays: 1850, 1864, 1985 ]", "format": "functional"}, "Melanocortin receptor 4": {"biological_target": "Melanocortin receptor 4 (Homo sapiens, UniProt P32245)", "sequence (P32245 whole entry)": "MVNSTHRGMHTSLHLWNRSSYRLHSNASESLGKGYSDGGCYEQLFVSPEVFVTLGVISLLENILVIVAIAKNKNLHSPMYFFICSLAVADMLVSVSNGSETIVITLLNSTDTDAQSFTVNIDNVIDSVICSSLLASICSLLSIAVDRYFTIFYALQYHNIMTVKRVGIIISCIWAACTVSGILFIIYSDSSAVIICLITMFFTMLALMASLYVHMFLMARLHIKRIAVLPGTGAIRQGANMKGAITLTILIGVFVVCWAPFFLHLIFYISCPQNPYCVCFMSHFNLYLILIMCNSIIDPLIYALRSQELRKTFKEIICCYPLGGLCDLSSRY", "format": "functional, cell-based"}, "Beta-galactosidase": {"biological_target": "Beta-galactosidase (Escherichia coli, UniProt Q8VNN2)", "sequence (Q8VNN2 whole entry)": "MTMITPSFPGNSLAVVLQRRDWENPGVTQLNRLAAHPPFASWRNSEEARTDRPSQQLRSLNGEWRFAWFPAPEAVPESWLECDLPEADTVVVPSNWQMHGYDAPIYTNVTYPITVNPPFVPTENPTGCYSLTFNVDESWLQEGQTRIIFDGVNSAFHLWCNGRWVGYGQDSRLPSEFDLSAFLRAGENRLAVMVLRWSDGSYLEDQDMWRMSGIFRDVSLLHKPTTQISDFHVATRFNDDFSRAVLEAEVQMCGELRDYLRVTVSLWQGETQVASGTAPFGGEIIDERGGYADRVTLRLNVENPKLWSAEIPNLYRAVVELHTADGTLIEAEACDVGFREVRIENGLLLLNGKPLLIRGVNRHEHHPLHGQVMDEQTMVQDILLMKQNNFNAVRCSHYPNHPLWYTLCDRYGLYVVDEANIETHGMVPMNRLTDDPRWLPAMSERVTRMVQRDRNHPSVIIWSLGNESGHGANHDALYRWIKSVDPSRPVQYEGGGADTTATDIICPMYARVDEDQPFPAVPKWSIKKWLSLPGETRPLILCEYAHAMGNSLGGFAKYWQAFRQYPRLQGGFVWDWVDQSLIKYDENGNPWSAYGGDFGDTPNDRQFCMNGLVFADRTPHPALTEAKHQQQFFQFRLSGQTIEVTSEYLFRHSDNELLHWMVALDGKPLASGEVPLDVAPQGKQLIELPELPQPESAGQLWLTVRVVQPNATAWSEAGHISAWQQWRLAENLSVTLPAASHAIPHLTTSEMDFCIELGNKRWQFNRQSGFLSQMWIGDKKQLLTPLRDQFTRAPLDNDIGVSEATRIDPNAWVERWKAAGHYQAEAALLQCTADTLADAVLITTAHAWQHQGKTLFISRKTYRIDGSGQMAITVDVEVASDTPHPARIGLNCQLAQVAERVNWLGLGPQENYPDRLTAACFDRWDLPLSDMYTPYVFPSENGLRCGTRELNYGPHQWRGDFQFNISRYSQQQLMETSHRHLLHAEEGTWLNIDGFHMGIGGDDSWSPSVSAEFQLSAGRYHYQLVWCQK", "test": "detection-enzyme interference by beta-gal modulators – biochemical, E. coli enzyme, set 3, artefact control for CCR6 antagonist project, dose response (AID 504712)", "format": "functional"}, "[3]": {"biological_target": "T2, Carboxy-terminal domain RNA polymerase II polypeptide A small phosphatase 1 (Homo sapiens, UniProt Q9GZU7)", "T2 sequence (Q9GZU7 whole entry)": "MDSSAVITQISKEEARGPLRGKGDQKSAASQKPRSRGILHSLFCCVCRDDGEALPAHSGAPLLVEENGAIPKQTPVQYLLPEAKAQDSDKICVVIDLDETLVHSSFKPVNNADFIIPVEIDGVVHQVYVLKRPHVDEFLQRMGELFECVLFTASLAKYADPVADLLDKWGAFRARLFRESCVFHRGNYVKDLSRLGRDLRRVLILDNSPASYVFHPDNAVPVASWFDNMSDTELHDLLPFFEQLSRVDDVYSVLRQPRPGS", "test": "CTDSP1 inhibitors, concentration-response, biochemical, absorbance readout, ultra-high-throughput screen actives (AID 540297)", "format": "functional"}, "[4]": {"test": "fluconazole-exposed Candida albicans growth modulators – fluorescence, retest, confirmation (AID 2467)", "format": "functional, cell-based"}, "[5]": {"test": "NIH-3T3 fibroblast cytotoxicity, dose response, cytotoxicity control, cell-based, fluorescence, Alamar Blue, secondary assay (AID 2327);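 also: NIH-3T3 mouse fibroblasts cultured with fluconazole at 8 µg/mL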", "format": "functional"}, "[6]": {"test": "Luminescence Cell-Based Dose Confirmation HTS to Identify Inhibitors of Platelet Dense Granule Release. [Related pubchem assays: 1663 (Primary HTS), 1678 (Summary of Project)]", "format": "functional"}, "[7]": {"biological_target": "Luciferin 4-monooxygenase (Photinus pyralis, UniProt P08659)", "sequence (P08659 whole entry)": "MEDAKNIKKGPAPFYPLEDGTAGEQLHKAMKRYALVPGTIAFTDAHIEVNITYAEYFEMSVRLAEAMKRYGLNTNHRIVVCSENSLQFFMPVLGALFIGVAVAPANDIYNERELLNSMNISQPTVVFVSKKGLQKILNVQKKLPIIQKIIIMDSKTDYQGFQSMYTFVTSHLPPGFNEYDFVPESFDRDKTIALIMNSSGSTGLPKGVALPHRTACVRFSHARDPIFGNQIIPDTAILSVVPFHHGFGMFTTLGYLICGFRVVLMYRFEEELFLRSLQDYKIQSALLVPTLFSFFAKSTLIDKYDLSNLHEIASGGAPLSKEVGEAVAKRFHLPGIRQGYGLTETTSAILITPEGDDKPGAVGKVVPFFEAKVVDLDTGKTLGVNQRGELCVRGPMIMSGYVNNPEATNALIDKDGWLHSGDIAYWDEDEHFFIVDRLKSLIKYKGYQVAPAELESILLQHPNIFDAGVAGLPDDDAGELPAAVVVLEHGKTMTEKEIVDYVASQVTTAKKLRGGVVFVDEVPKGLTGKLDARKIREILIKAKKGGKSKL", "test": "inhibition of purified Photinus pyralis luciferase – biochemical, luminescence, dose response (AID 1891)"}, "[8]": {"test": "microbe, parasite or virus in culture", "format": "functional", "settings": "Mycobacterium tuberculosis"}, "BJ [9]": {"system": "BJ", "test": "BJ-TERT fibroblast viability loss – cell-based, RAS-independent, luminescence, dose response (AID 1933)", "format": "functional", "settings": "Homo sapiens"}, "BJ [10]": {"system": "BJ", "test": "cells", "format": "functional, cell-based", "settings": "Homo sapiens"}, "[11]": {"test": "HEK-293T viability loss after treatment – luminescence, T-cell screen hits, cytotoxicity control for TCR NF-kB inhibitor project, dose response (AID 489026);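 also: cells exposed to compound about 14 hours before the viability readout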", "format": "functional, cell-based"}, "BJ [12]": {"system": "BJ", "test": "BJ-TERT-LT-ST fibroblast viability loss – cell-based, RAS-independent, luminescence, dose response (AID 1935);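 also: BJ fibroblasts immortalized with TERT plus LT and ST oncogenes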", "format": "functional", "settings": "Homo sapiens"}, "BJ [13]": {"system": "BJ", "test": "growth inhibition of engineered Ras-driven BJ cells – cell-based, alamar blue fluorescence, cherrypicked samples, dose response (AID 2631)", "format": "functional", "settings": "Homo sapiens"}, "[14]": {"test": "DRD fibroblast viability loss – cell-based, non-viral oncogenic, luminescence, dose response (AID 1934)", "format": "functional", "settings": "Homo sapiens"}, "[15]": {"biological_target": "Casein kinase I isoform alpha (Homo sapiens, UniProt P48729)", "sequence (P48729 whole entry, canonical isoform)": "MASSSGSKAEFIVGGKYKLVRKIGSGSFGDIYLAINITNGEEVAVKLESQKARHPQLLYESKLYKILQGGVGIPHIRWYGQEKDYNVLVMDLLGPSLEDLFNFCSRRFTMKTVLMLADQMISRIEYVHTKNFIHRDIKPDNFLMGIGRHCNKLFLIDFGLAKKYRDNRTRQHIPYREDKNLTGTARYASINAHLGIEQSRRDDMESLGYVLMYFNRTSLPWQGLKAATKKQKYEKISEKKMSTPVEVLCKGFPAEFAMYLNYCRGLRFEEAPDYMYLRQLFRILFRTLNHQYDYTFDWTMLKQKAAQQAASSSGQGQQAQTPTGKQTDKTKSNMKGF", "format": "functional"}, "HEK293": {"system": "HEK293", "test": "EBV LMP1 TES2 canonical NF-kB signalling blockers – cell-based, HEK293, luciferase, cherry-pick, dose response (AID 588343)", "format": "functional", "settings": "Homo sapiens"}, "[16]": {"test": "loss of viability in HepG2 cells – cell-based, CellTiter-Glo, cherry-picked, cytotoxicity control for Shn3 inhibitor project, dose response (AID 624134)", "format": "functional"}, "[17]": {"test": "reduction of Shn3 3'UTR-driven luciferase in osteoblasts – cell-based, Clone20 osteoblasts, firefly luciferase, cherry-picked, dose response (AID 624132);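 also: firefly luciferase luminescence from reporter carrying the Shn3 3'UTR in osteoblasts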", "format": "functional"}, "[18]": {"test": "Luminescence Cell-Based Dose Retest to Confirm Inhibitors of Cancer Stem Cells. [Related pubchem assays (depositor defined):AID2717, AID2721]", "format": "functional", "settings": "Homo sapiens"}, "[19]": {"biological_target": "T3, High affinity choline transporter 1 (Homo sapiens, UniProt Q9GZV3)", "T3 sequence (Q9GZV3 whole entry)": "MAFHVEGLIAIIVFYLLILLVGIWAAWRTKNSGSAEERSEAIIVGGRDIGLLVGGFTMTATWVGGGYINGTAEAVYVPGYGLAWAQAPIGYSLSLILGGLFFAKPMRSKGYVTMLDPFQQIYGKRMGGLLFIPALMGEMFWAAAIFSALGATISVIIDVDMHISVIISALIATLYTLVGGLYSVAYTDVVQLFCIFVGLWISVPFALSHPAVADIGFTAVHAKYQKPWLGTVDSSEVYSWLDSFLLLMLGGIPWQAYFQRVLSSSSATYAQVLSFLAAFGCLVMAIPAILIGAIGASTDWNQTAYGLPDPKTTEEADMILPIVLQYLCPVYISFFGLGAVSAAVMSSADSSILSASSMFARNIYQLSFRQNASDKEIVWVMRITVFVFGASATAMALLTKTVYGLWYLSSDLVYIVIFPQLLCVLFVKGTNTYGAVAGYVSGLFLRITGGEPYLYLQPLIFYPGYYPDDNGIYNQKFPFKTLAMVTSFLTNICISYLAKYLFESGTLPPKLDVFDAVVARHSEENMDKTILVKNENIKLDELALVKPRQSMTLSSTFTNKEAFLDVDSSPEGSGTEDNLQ", "test": "human choline transporter blockers, potency – cell-based, 5-point CRC, membrane potential dye, dose response (AID 504840)", "format": "functional"}}, "note": "Calls of active or inactive are those of the source.", "data": [{"smiles": "Cc1cc(CSC(=N)N)c(CSC(=N)N)cc1C", "values": [{"measurement": "EC50", "setting": "[1]", "value": "2.11 µM (active)"}, {"measurement": "EC50", "setting": "[2]", "value": "> 50 µM (active)"}]}, {"smiles": "CC(=O)Nc1cc(-c2ccccc2)cn2c(-c3ccc(F)c(Cl)c3)cnc12", "values": [{"measurement": "EC50", "setting": "Melanocortin receptor 4", "value": "> 89.2 µM (inactive)"}]}, {"smiles": "CCOc1ccc(C=NNc2ccc(S(=O)(=O)Nc3ccccc3C(=O)O)cc2[N+](=O)[O-])cc1OC", "values": [{"measurement": "IC50", "setting": "Beta-galactosidase", "value": "> 66.6 µM (inactive)"}, {"measurement": "IC50", "setting": "[3]", "value": "3.51 µM (active)"}]}, {"smiles": "N#C/C(=C\\c1ccc(OC(=O)c2cccs2)cc1)c1nc2ccccc2[nH]1", "values": [{"measurement": "EC50", "setting": "[4]", "value": "3.35 µM (active)"}, {"measurement": "EC50", "setting": "[5]", "value": "76.2 µM (active)"}, {"measurement": "IC50", "setting": "[3]", "value": "11.4 µM (active)"}]}, {"smiles": "COc1cccc(CC2(CO)CCCN(Cc3[nH]c4ccc(C)cc4c3C)C2)c1", "note": "(configuration not stated)", "values": [{"measurement": "EC50", "setting": "[6]", "value": "> 112 µM (not active)"}, {"measurement": "EC50", "setting": "Melanocortin receptor 4", "value": "> 89.2 µM (inactive)"}, {"measurement": "EC50", "setting": "[7]", "value": "> 112 µM (not active)"}, {"measurement": "CC50", "setting": "[8]", "value": "39.3 µM (active)"}]}, {"smiles": "CC(C)Oc1ccccc1C1CC(=O)Nc2cc3c(cc21)OCCO3", "note": "(configuration not stated)", "values": [{"measurement": "EC50", "setting": "BJ [9]", "value": "1.36 µM (active)"}, {"measurement": "EC50", "setting": "BJ [10]", "value": "8.62 µM (active)"}, {"measurement": "IC50", "setting": "[11]", "value": "> 80 µM (inactive)"}, {"measurement": "EC50", "setting": "BJ [12]", "value": "0.709 µM (active)"}, {"measurement": "EC50", "setting": "BJ [13]", "value": "0.181 µM (active)"}, {"measurement": "EC50", "setting": "[14]", "value": "0.676 µM (active)"}]}, {"smiles": "N#Cc1cnc(Cl)nc1N", "values": [{"measurement": "Ki", "setting": "[15]", "value": "100 µM (active)"}]}, {"smiles": "C[C@@H]1CN([C@@H](C)CO)S(=O)(=O)c2ccc(/C=C/c3ccccc3)cc2O[C@@H]1CN(C)Cc1ccc(C(=O)O)cc1", "values": [{"measurement": "AC50", "setting": "HEK293", "value": "35.4 µM (active)"}]}, {"smiles": "CC(C)C[C@@H](CO)N(Cc1ccccc1)S(=O)(=O)N(Cc1ccccc1)[C@H](CO)CC(C)C", "values": [{"measurement": "AC50", "setting": "[16]", "value": "21 µM (active)"}, {"measurement": "AC50", "setting": "[17]", "value": "10.1 µM (active)"}, {"measurement": "AC50", "setting": "[18]", "value": "5.76 µM (active)"}]}, {"smiles": "COc1cccc(C2c3c(-c4ccccc4)n[nH]c3C(=O)N2c2ccc(C(=O)O)cc2)c1", "note": "(configuration not stated)", "values": [{"measurement": "IC50", "setting": "[3]", "value": "5.63 µM (active)"}]}, {"smiles": "Cc1ccccc1NC(=O)CSc1nc2ccccc2c(=O)n1C", "values": [{"measurement": "AC50", "setting": "[16]", "value": "59.6 µM (active)"}, {"measurement": "AC50", "setting": "[17]", "value": "7.64 µM (active)"}]}, {"smiles": "CC1(C)CC(=O)C=C(Nc2cccc(Cl)c2Cl)C1", "values": [{"measurement": "IC50", "setting": "[19]", "value": "3.16 µM (active)"}]}]}
